Laboratory results as given in BigSolDB 2.1.

CC(=O)OC(c1ccccc1)C(Cl)(Cl)Cl (stereo unspecified)
solubility (mole fraction)
Details | in acetic acid | in acetone | in acetonitrile | in ethanol | in ethyl acetate | in ethyl formate | in isopropanol | in methanol | in n-propanol
288.15 K | 0.0201 | 0.0931 | 0.036 | 0.00865 | 0.117 | 0.0868 | 0.00712 | 0.00659 | 0.0105
293.15 K | 0.0271 | 0.111 | 0.0408 | 0.0108 | 0.137 | 0.105 | 0.00929 | 0.00757 | 0.0132
298.15 K | 0.0379 | 0.133 | 0.0579 | 0.0134 | 0.159 | 0.132 | 0.0129 | 0.00931 | 0.0164
303.15 K | 0.0482 | 0.158 | 0.0719 | 0.0171 | 0.19 | 0.165 | 0.0169 | 0.0121 | 0.0216
308.15 K | 0.0605 | 0.193 | 0.0989 | 0.0217 | 0.218 | 0.198 | 0.0211 | 0.0153 | 0.0287
313.15 K | 0.0767 | 0.232 | 0.13 | 0.029 | 0.251 | 0.236 | 0.0279 | 0.02 | 0.0375
318.15 K | 0.1 | 0.273 | 0.168 | 0.0406 | 0.287 | 0.274 | 0.0382 | 0.0264 | 0.0496
323.15 K | 0.127 | 0.32 | 0.218 | 0.0555 | 0.333 | 0.314 | 0.0538 | 0.0342 | 0.0667
328.15 K | 0.167 | 0.377 | 0.286 | 0.0735 | 0.38 | 0.363 | 0.0742 | 0.0447 | 0.0905
